Source: patent publication US7341991B2, “Inhibitors of amyloid precursor protein processing” (Posco, priority 2004, dated 2008)
Entries after “also recorded” stand apart in the source; their conditions may differ. Where no end group is shown, it is not given here.

Columns and labels:
rhBACE1 = biological target: T1, rhBACE1 (Homo sapiens, UniProt P56817); assay: ELISA binding of rhBACE1 to immobilized c-Sub M
T1 construct: purchased R&D Systems
From the text: In one embodiment of the present invention, four HC decapeptides targeted to either wild type APP or APPsw may be designed. […] Therefore, there is possibility that c-Sub M or any compounds derived from c-Sub M may inhibit production of Aβ from wild type APP in cells.

[1] = tested on: cleavage of Substrate M by rhBACE (recombinant human β-secretase); assay: Fluorometric (FRET) assay for cleavage of F-Substrate M by β-secretase; assay type: biochemical; settings: for inhibitory activity group on Substrate M cleavage: tested at various concentrations (FIG. 8)
From the text: This assay system utilizes fluorescence resonance energy transfer (FRET) technology. Substrate M was synthesized with two fluorophores, a fluorescent donor and a proprietary quenching acceptor (purchased from a commercial source, R&D Systems). […] Upon cleavage of substrate by β-secretase, the fluorophore is separated from the quenching group, restoring the full fluorescence yield of donor.
Substrate labeled with fluorophores will be called F-Substrate M (R&D Systems). Recombinant human β-secretase will be called rhBACE (recombinant human β-site APP cleavage enzyme) (purchased from R&D systems).
[…] Cleavage by rhBACE was detected by reading emitted fluorescence level.
In this assay system, fluorescence resonance energy transfer (FRET) technology was utilized. […] After pre-incubation, substrate and HC peptide mixture in assay buffer was transferred to FluoroNunc™ 96 well white plate (Nunc, Roskilde, Denmark), and rhBACE1 (70 nM) was added. Time-dependent emission of fluorescence (excitation at 320 nm, emission at 405 nm) was monitored in a Molecular Devices SpectraMax Gemini EM fluorescence reader (CA, USA) for 1 h at 37° C. All assays were carried out in duplicate.

[2] = tested on: Substrate M (SEVNLDAEFR, β-secretase cleavage site of APPsw); assay: Binding of biotin-labeled Substrate M to immobilized complementary (HC) peptides; settings: biotin-labeled Sub M, peptide immobilized on plate
Description: (§1) Complementary peptides (0.2, 2, 20, and 200 μM) were dissolved in phosphate buffered saline (PBS) (pH 7.4) and fixed to microtiter wells for 5 hr at 37° C. The wells were blocked with blocking buffer (3% BSA/PBS) for 1 hr at 37° C. Either N-terminally biotinylated Substrate W or M (20 μM) in blocking buffer was added and incubated for overnight at 4° C. Streptavidin-horseradish peroxidase in blocking buffer was added to detect resulting bound substrates. The plate was incubated for 2 hr at room temperature (RT), followed by addition of 3, 3′, 5,5′-tetramethyl-benzidine (TMB) as substrate for horseradish peroxidase for color reaction.
(§2) Reacti-Bind™ maleic anhydride-activated polystyrene plate (Pierce, IL, USA) was coated with 50 μl of HC peptide (200 μM in distilled water) by chemical coupling for 3 h at room temperature (RT) and washed three times with phosphate buffered saline (PBS) containing 0.05% tween 20 (PBST). The plate was blocked with blocking buffer (0.5% gelatin in PBS) for 1 h at RT. After discarding blocking buffer, biotinylated BACE1 substrates (200 μM) in blocking buffer was applied on the plate and incubated for 2.5 h at RT. Each well was washed three times with PBST. The bound biotinylated BACE1 substrates were detected by incubation with streptavidin-horseradish peroxidase (Str-HRP, 125 mU/ml in blocking buffer) for 2 h at RT. Color reaction was carried out with 50 μl of 3,3′,5,5′-Tetramethylbenzidine Liquid Substrate (Sigma-Aldrich, MO, USA). After stopping the reaction by addition of an equal volume of 1 N HCl, absorbance at 450 nm was read in an automated ELISA reader (EL 312e, Bio-Tek Instruments, VT, USA). All assays were carried out in duplicate.

[3] = tested on: APP processing in HEK293-APP cells; assay: Cell based assay of APP processing (βCTF, Western blot) in HEK293-APP cells; parameters: species or system human; settings: βCTF
Description: In the neuronal cells of the brain, APP is processed by α-secretase or β-secretase. To investigate the effects of the inhibitors on the cell, a cell based assay system was developed as described in FIG. 10. C-terminal fragment of APP remaining on the cell membrane was detected by Western blot. The resulting C-terminal fragments, αCTF or βCTF are further processed by γ-secretase. However, if the cells are treated with the γ-secretase inhibitor, this processing is blocked. As a result, αCTF or βCTF accumulate in the cell. If β-secretase inhibitor or APP inhibitor is added, this processing is blocked and βCTF disappears.
To test APP inhibitor activities in cells, three complementary peptides, c-Sub M, c-Sub MΔC6, and c-Sub MΔN1C1, which show high absorbance in binding test, were added to whole cell extracts of HEK293-APP cells (Lanes 2, 3, and 4 in FIG. 11). In addition, γ-secretase inhibitor and cholesterol were added to the cells to increase βCTF level. Commercially available peptide-based β-secretase inhibitor was included as control (Lane 6, FIG. 11). To detect the N-terminal fragment of β-amyloid which is a product of APP processing, 6E10 antibody was employed. […] Recently, it has been reported that the commercially available peptide-based inhibitor had to be linked to an oligoarginine transporter peptide to have inhibitory activity against cells. Therefore, mimetic approach is adopted to produce cell permeable analogs. (Chang et al. J. Neurochemistry 2004; 89:1409-1416).
After confirming the ability of the oligo-arginine coupled APP inhibitors to enter the cells, the inhibitors were applied to HEK293-APP cells overexpressing APP to test their inhibitory activities on APP processing. […] This inhibitor started to show significant inhibitory activity beginning from 0.1 μM (lower panel).

[4] = biological target: T2, Substrate W (SEVKMDAEFR, β-secretase cleavage site of wild type APP) (Homo sapiens, UniProt P05067); assay: Binding of biotin-labeled Substrate W to immobilized complementary (HC) peptides
T2 construct: purchased Peptron, Inc; host or cells: chemical synthesis
Description: as §1
In particular, for Substrate W, complementary peptides (200 μM) dissolved in phosphate buffered saline (PBS) (pH 7.4) were chemically coupled to Reacti-Bind Maleic Anhydride Activated Polystyrene wells (Pierce Biotechnology, Inc.) for overnight at room temperature (RT). Remaining active sites of the plate were inactivated by adding ethanolamine (1 M) for 1 hr at RT. The wells were blocked with blocking buffer (3% BSA/PBS) for 1 hr at RT. N-terminally biotinylated Substrate W (20 μM) in blocking buffer was added and incubated for 3 hr at RT. Streptavidin-horseradish peroxidase in blocking buffer was added to detect resulting bound substrates. The plate was incubated for 2 hr at room temperature (RT), followed by addition of 3,3′,5,5′-tetramethyl-benzidine (TMB) as substrate for horseradish peroxidase for color reaction.
as §2

[5] = tested on: γ-secretase (membrane fractions of N2a cells); assay: γ-Secretase activity assay on membrane fractions of N2a cells; assay type: biochemical, mouse; settings: 200 μM peptide, 12.5 μM fluorogenic substrate, 1 hour preincubation
Description: Since γ-secretase is composed of four components, cloning of γ-secretase gene is impossible. Therefore, cell extracts were used as γ-secretase source. To obtain the cell extracts, after cell lysis with extraction buffer, the lysate was centrifuged at 10,000×g for 1 minute. Afterward, 2× reaction buffer and fluorogenic substrate was mixed and added to the cell lysate. Then, this mixture was incubated at 37° C. and γ-secretase activity was detected at excitation 335 to 355 nm and emission 495 to 510 nm.
γ-Secretase activity assay was performed on membrane fractions of N2a cells in the presence of several complementary peptides. After 12.5 μM fluorogenic substrate and 200 μM each of the complementary peptides were preincubated for 1 hour, γ-secretase was added to the mixture. In the course of time, the fluorogenic substrate was cleaved by the γ-secretase.

[6] = tested on: cleavage of Sub M by rhBACE1; assay: HPLC analysis of cleavage of Substrate M by β-secretase; assay type: biochemical; settings: 25-fold amount of inhibitor; 420 nM β-secretase
Description: Substrate M (100 μM) was preincubated with complementary peptides ([…]) in assay buffer (100 μl) overnight at RT. rhBACE (140 nM) in assay buffer was added and incubated for 11 hr at RT. Cleavage products of Substrate M by rhBACE were quantitated after separation by C-18 reversed-phase column chromatography (GRACE VyDAC).
(§3) One of the advantages of the APP inhibitor described in the present invention is that it is a peptide or a mimetic that bind to the β-secretase cleavage site of APP, thus not affecting other β-secretase substrates. To confirm the specificity of the inventive APP inhibitor, two different types of substrates were used, APP Sub M and ST6Gal1. Both substrates are cleaved by β-secretase under normal conditions and the effect of the inventive APP inhibitor on the substrate cleavage was monitored by HPLC (See the schematic diagram in FIG. 16.) To carry out these experiments, the concentration of β-secretase required for cleavage of both substrates was determined as shown in FIG. 17. For substantial cleavage of ST6Gal1 substrate, 420 nM of the enzyme was required. Therefore, 420 nM of β-secretase was used for the following experiment.
Reversed-phase HPLC was also used to analyze the products of enzyme action in vitro. […] The cleavage products were identified at 215 nm and quantitated by integrating the area under each peak. […]

[7] = biological target: T3, Sub-ST6Gal1 (DYEALTLQAKEFQMPKSQE) (Rattus norvegicus, UniProt P13721); assay: Binding of bio-Sub-ST6Gal1 to immobilized HC peptide; settings: peptide coupled on microtiter plate
T3 construct: 19 amino acid region (DYEALTL/QAKEFQMPKSQE) that contains the β-cleavage site for investigation was chosen; purchased Peptron, Inc; host or cells: chemical synthesis
Description: as §2
It was investigated if HC peptide would show specificity for APP in terms of the inhibition of cleavage by BACE1. ST6Gal1 is also cleaved by BACE1. For this experiment, 19 amino acid region (DYEALTL/QAKEFQMPKSQE) that contains the β-cleavage site for investigation was chosen. The 19 amino acid peptide was designated as Sub-ST6Gal1. […]

[8] = biological target: T4, cleavage of Sub-ST6Gal1 by rhBACE1 (Rattus norvegicus, UniProt P13721); assay: HPLC analysis of cleavage of ST6Gal1 substrate by β-secretase; assay type: biochemical, human; settings: up to 10 inhibitor/substrate ratio; Sub-ST6Gal1 50 μM, 500 nM rhBACE1
T4 construct: Sub-ST6Gal1 (50 μM, DYEALTLQAKEFQMPKSQE) peptide corresponding to the β-cleavage site of ST6Gal1; purchased R&D Systems (enzyme); A&Pep Co., Inc. (non-labelled peptides)
From the text: as §3
Various concentrations of HC peptide were preincubated with either Sub M (50 μM) or Sub-ST6Gal1 (50 μM, DYEALTLQAKEFQMPKSQE) peptide corresponding to the β-cleavage site of ST6Gal1 for 2 h at RT. The mixtures containing Sub M was treated with 50 nM of rhBACE1 and that containing Sub-ST6Gal1 was treated with 500 nM enzyme for 12 h at RT. Roughly 50% of each BACE1 substrate was cleaved in the absence of HC peptide. The cleavage products were separated on a C18 reversed-phase HPLC column as described above.

[9] = tested on: γ-secretase cleavage in KEK293 APP cells; assay: Cell based γ-secretase assay (α-CTF, Western); parameters: species or system human; settings: 9 hours treatment, α-CTF accumulation
Description: In order to test these peptides in the cell for their inhibitory effect on γ-secretase cleavage, a cell based assay was developed. After KEK293 APP cells were cultured in 6 well culture plates with 90% confluency, the cells were treated for 9 hours with N-[N-(3,5-difluorophenacetyl)-L-alanyl]-(S)-phenylglycine t-butyl ester (DAPT) (Dovey H F et al, J. Neurochemistry 2001; 76:173-181), which is a known γ-secretase inhibitor, and complementary peptides. The cells in each well were lysed and these lysates were separated with 15% tris-tricine gel. Western analysis was performed with R1 antibody as primary antibody and goat anti-rabbit-HRP as secondary antibody.

T1 sequence (P56817 46-501): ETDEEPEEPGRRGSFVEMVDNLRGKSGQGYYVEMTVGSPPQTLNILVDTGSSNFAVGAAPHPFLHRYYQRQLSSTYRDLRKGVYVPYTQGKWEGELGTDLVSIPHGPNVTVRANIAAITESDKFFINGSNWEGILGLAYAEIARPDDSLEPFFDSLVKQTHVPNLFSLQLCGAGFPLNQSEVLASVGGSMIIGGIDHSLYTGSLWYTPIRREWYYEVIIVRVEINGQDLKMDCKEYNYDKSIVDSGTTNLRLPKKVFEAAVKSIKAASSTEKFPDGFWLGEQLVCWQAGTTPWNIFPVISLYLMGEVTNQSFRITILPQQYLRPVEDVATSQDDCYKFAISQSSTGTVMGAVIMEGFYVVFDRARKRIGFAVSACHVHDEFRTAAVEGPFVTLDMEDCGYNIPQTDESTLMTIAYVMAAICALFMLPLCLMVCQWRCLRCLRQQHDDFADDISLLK

With SEFCIQIHFR-NH2 [c-Sub M, SEFCIQIHFR] the “binding to rhBACE1” value (rhBACE1) was “does not bind to rhBACE1”, the “entry / transport into the cells” value (HEK293-APP cells) was “does not enter the cells” and the “inhibition of cleavage of Substrate M by β-secretase” value ([1]; in vitro, rhBACE1) was “inhibit cleavage”. The “inhibitory activity group on Substrate M cleavage” value (shortened to “inhibitory activity group”) [1] was “less activity”, the “binding to Substrate M” value [2] was “binds to Sub M appreciably and bind and binds its substrate Sub M and highest binding” and the “binding to Substrate M” value ([2]; listed as c-Sub) was “bound”. For the same compound, the “inhibitory activity on APP processing” value [3] was “does not inhibit the processing of APP in cells; also recorded: none of the inhibitors tested showed inhibitory activity”, the “binding to Sub W relative to c-Sub W” value ([4]; bio-Sub W) was 4 fold and the “binding to Substrate W” value ([4]; biotin-labeled Sub W, peptide immobilized on plate) was “binds the wild type substrate Sub W efficiently”.
For PQQYRCHRQR [rCh2 (3′→5′)], the “inhibitory effect on γ-secretase activity” value [5] was “about 80%”.
With FCIQIHF (FCIQIHF-NH2) [c-Sub M ΔN2C1] the “inhibitory activity group” value [1] was “most active” and the “Sub M cleavage blocked” value [6] was “about 60%”.
EFCIQIHF [c-Sub M ΔN1C1] was tested, and the “inhibitory activity group” value [1] was “most active”, the “binding of bio-Sub-ST6Gal1” value [7] was “also bound” and the “inhibitory activity on APP processing” value [3] was “none of the inhibitors tested showed inhibitory activity”. For the same compound, the “inhibition of cleavage of Sub-ST6Gal1” value [8] was “about 10%”.
In the case of `C[C@H](NC(=O)Cc1cc(F)cc(F)c1)C(=O)N[C@H](C(=O)OC(C)(C)C)c1ccccc1` [DAPT, N-[N-(3,5-difluorophenacetyl)-L-alanyl]-(S)-phenylglycine t-butyl ester], the “inhibition of γ-secretase activity in cells” value [9] is reported as “inhibits γ-secretase activity very effectively”.
